Consider 17 compounds from PubChem BioAssay (NCI).

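Exposure lasted 48 hours, with cells grown in 96-well plates and compounds tested at five concentrations. GI50 = concentration required for 50% inhibition of growth. At the TGI there is no net growth.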

Some test systems named below: CAKI-1 renal; DU-145 prostate; HS 578T breast; HT29 colon; LOX IMVI melanoma; MALME-3M melanoma; RXF 393 renal; SF-295 CNS; SNB-19 CNS; TK-10 renal.
Assay in all cases: NCI anticancer screen, dose series, 48 h

As to `C[C@]12CCC(=O)C=C1CC[C@@H]1[C@@H]2[C@@H](O)C[C@@]2(C)[C@H]1CC[C@]2(O)C(=O)COC(=O)C1CCCC1`, the TGI in the experiment with CAKI-1 renal, in the experiment with DU-145 prostate, with HS 578T breast, in the experiment on HT29 colon, in the experiment on LOX IMVI melanoma and in the experiment on MALME-3M melanoma was over 100 µM throughout. Further, the TGI with RXF 393 renal, in the experiment with SF-295 CNS, with SNB-19 CNS and with TK-10 renal was over 100 µM in each case.
For the compound `O=S(O)c1cc(Cl)cc(Cl)c1OCc1ccccc1`, the TGI with HT29 colon, in the experiment on LOX IMVI melanoma, with MALME-3M melanoma, with RXF 393 renal, in the experiment with SNB-19 CNS and in the experiment with TK-10 renal was over 100 µM in each case.
With `Cc1ccc(SSCCCCCS(=O)O)cc1`, the TGI was over 100 µM with HT29 colon; 30.9 µM in the experiment on LOX IMVI melanoma; over 100 µM in the experiment with MALME-3M melanoma; 43.3 µM in the experiment with RXF 393 renal; over 100 µM in the experiment on SNB-19 CNS; 75.4 µM with TK-10 renal.
On to `CC(=O)C1=C(O)CCC1=O`, for which the TGI in the experiment on CAKI-1 renal, in the experiment on DU-145 prostate, in the experiment on HS 578T breast, in the experiment on HT29 colon, in the experiment on LOX IMVI melanoma and in the experiment on MALME-3M melanoma was over 100 µM in each case. In addition, the TGI with RXF 393 renal, in the experiment with SF-295 CNS, in the experiment with SNB-19 CNS and in the experiment on TK-10 renal was over 100 µM throughout.
As for `COc1ccc2nc3ccccc3c(NCc3ccc(C)cc3)c2c1`, the GI50 was 1.59 µM with CAKI-1 renal; 2.64 µM in the experiment on DU-145 prostate; 1.43 µM with HT29 colon; 1.54 µM in the experiment on LOX IMVI melanoma; 1.81 µM in the experiment on MALME-3M melanoma; 1.32 µM in the experiment with RXF 393 renal. Moreover, the GI50 was 1.34 µM with SF-295 CNS, 2.97 µM in the experiment on SNB-19 CNS and 1.97 µM in the experiment with TK-10 renal. The TGI with CAKI-1 renal was 2.98 µM; with DU-145 prostate, 7.68 µM; in the experiment with HT29 colon, 7.16 µM; with LOX IMVI melanoma, 2.95 µM; in the experiment with MALME-3M melanoma, 3.29 µM; in the experiment with RXF 393 renal it was 2.83 µM. The TGI in the experiment with SF-295 CNS was 2.74 µM; in the experiment with SNB-19 CNS it was 11.4 µM; in the experiment on TK-10 renal it was 4.15 µM.
On to `Clc1ccc(-c2nnc(-c3c(Cl)c(Cl)c(Cl)c(Cl)c3-c3nc4ccccc4[nH]3)o2)cc1`, for which the TGI in the experiment on CAKI-1 renal, in the experiment with DU-145 prostate, in the experiment with HS 578T breast, in the experiment with HT29 colon, in the experiment on LOX IMVI melanoma and in the experiment with MALME-3M melanoma was over 100 µM throughout. The TGI in the experiment with RXF 393 renal and in the experiment on SF-295 CNS was over 100 µM throughout.
As for `COc1cc2c(cc1OC)-c1cc3ccc(OC)c(OC)c3c[n+]1CC2`, the TGI in the experiment with CAKI-1 renal, in the experiment on DU-145 prostate, in the experiment on HS 578T breast, in the experiment with HT29 colon, in the experiment with MALME-3M melanoma and in the experiment on RXF 393 renal was over 100 µM each time. The TGI in the experiment with SF-295 CNS is over 100 µM; in the experiment on SNB-19 CNS, 68 µM; with TK-10 renal, over 100 µM.
Turning to `C[N+](C)(CCO)CCN1c2ccccc2Sc2ccccc21`, the TGI in the experiment with CAKI-1 renal, with DU-145 prostate, in the experiment on HS 578T breast, in the experiment with HT29 colon, with LOX IMVI melanoma and with MALME-3M melanoma was over 10 µM each time. For the same compound, the TGI in the experiment with RXF 393 renal, in the experiment with SF-295 CNS, in the experiment on SNB-19 CNS and with TK-10 renal was over 10 µM throughout.
For the compound `Fc1c(F)c(C(F)(F)F)c(F)c(F)c1N/N=C/c1cn(Cc2ccccc2)c2ccccc12`, the TGI is 54.3 µM in the experiment with CAKI-1 renal; over 100 µM in the experiment with DU-145 prostate; over 100 µM with HS 578T breast; 49.3 µM with HT29 colon; 47.3 µM in the experiment on LOX IMVI melanoma; over 100 µM with MALME-3M melanoma. Further, the TGI in the experiment on RXF 393 renal was 41.5 µM; with SF-295 CNS, 36.2 µM; with SNB-19 CNS, 76.8 µM; with TK-10 renal, 66.4 µM.
For the compound `COc1ccc2c(c1)CC[C@@H]1[C@@H]2CC[C@]2(C)C(=O)/C(=C/c3ccc(O)c(OC)c3)C[C@@H]12`, the TGI in the experiment on CAKI-1 renal, in the experiment with DU-145 prostate, in the experiment with HT29 colon, in the experiment with LOX IMVI melanoma, in the experiment with RXF 393 renal and in the experiment with SF-295 CNS was over 100 µM throughout. The TGI in the experiment on SNB-19 CNS and with TK-10 renal was over 100 µM each time.
For the compound `COc1ccc(C2C(C=O)C(N3CCN(C)CC3)=Nc3nc4ccccc4n32)cc1` (centres undefined), the TGI was 52.4 µM in the experiment on CAKI-1 renal; 49.3 µM in the experiment with DU-145 prostate; over 100 µM in the experiment on HS 578T breast; 36.8 µM in the experiment with HT29 colon; 34.1 µM in the experiment on LOX IMVI melanoma; 26.3 µM in the experiment with MALME-3M melanoma. Besides, the TGI amounted to 39.2 µM with RXF 393 renal, 50.9 µM in the experiment on SF-295 CNS, 41 µM in the experiment on SNB-19 CNS and 40 µM in the experiment on TK-10 renal.
For `O=C1C[C@H](CCC(=O)OCc2ccccc2)NC(=O)C[C@H](CCC(=O)OCc2ccccc2)NC(=O)C[C@H](CCC(=O)OCc2ccccc2)N1`, the TGI in the experiment on CAKI-1 renal, with DU-145 prostate, in the experiment on HS 578T breast, in the experiment on HT29 colon, in the experiment on LOX IMVI melanoma and in the experiment with MALME-3M melanoma was over 100 µM throughout. For the same compound, the TGI in the experiment on RXF 393 renal was 8.23 µM; in the experiment with SF-295 CNS, 42.8 µM; with SNB-19 CNS, over 100 µM; in the experiment with TK-10 renal, 25.4 µM.
For `COc1cc2c(cc1OCCCN1CCN(c3ncnc4ccccc34)CC1)N=CC1CCCN1C2=O` (centres undefined), the GI50 in the experiment on CAKI-1 renal was 0.0191 µM; with DU-145 prostate it was 0.0278 µM; in the experiment on HS 578T breast it was under 0.0177 µM; in the experiment with HT29 colon it was 0.0298 µM; in the experiment on MALME-3M melanoma, 0.0198 µM; with RXF 393 renal, 0.0205 µM. In addition, the GI50 with SF-295 CNS is 0.0258 µM; in the experiment on SNB-19 CNS, 0.041 µM; in the experiment on TK-10 renal it was 0.0293 µM. Besides, the TGI with CAKI-1 renal came to 0.0574 µM; in the experiment with DU-145 prostate, 0.311 µM; in the experiment with HS 578T breast it was 0.0568 µM; in the experiment with MALME-3M melanoma, 0.0479 µM; in the experiment on RXF 393 renal, 0.0394 µM; in the experiment with SF-295 CNS, 0.0545 µM. For the same compound, the TGI with SNB-19 CNS worked out at 11.2 µM; with TK-10 renal, 1.08 µM.
For `O=c1/c(=C/c2ccc([N+](=O)[O-])o2)sc2n1[C@@H](c1ccc3c(c1)OCO3)C=C(c1cc(F)c(Cl)cc1Cl)N=2`, the TGI in the experiment on CAKI-1 renal was 33.6 µM; with DU-145 prostate, 79.8 µM; in the experiment with HS 578T breast, over 100 µM; with HT29 colon, 46 µM; in the experiment on LOX IMVI melanoma, 42.9 µM; in the experiment on MALME-3M melanoma, 40.5 µM. Besides, the TGI with RXF 393 renal is 43.2 µM; in the experiment with SF-295 CNS it was over 100 µM; in the experiment with SNB-19 CNS, 60.3 µM; with TK-10 renal, 47.8 µM.
`N#C[S-].[Ce+3].c1cnc2c(c1)ccc1cccnc12.c1cnc2c(c1)ccc1cccnc12.c1cnc2c(c1)ccc1cccnc12`: the TGI with CAKI-1 renal came to 14.3 µM; in the experiment on HT29 colon it was 23.9 µM; in the experiment on LOX IMVI melanoma it was 10.9 µM; in the experiment with MALME-3M melanoma, 8.84 µM; in the experiment with SF-295 CNS, 1.45 µM; in the experiment with SNB-19 CNS it was 22.5 µM. This compound had a TGI with TK-10 renal of 29.9 µM.
As to `NC(CC(=O)O)(Cc1ccccc1)C(=O)O` (centres undefined), the TGI in the experiment with CAKI-1 renal, in the experiment on DU-145 prostate, with HS 578T breast, in the experiment on HT29 colon, in the experiment on LOX IMVI melanoma and in the experiment with MALME-3M melanoma was over 100 µM in each case. Further, the TGI in the experiment on RXF 393 renal, in the experiment with SF-295 CNS, in the experiment on SNB-19 CNS and with TK-10 renal was over 100 µM throughout.
Regarding `Cn1c(=O)c2c(nc(NCCNc3nc4c(c(=O)n(C)c(=O)n4C)n3C)n2C)n(C)c1=O`, the TGI in the experiment on CAKI-1 renal, with DU-145 prostate, in the experiment with HS 578T breast, in the experiment on HT29 colon, with LOX IMVI melanoma and with MALME-3M melanoma was over 100 µM in each case. Further, the TGI in the experiment on RXF 393 renal, in the experiment with SF-295 CNS, with SNB-19 CNS and in the experiment on TK-10 renal was over 100 µM in each case.
